Reference: US10513494B2, “Methods, compounds, and compositions for anesthesia” (THE BOARD OF TRUSTEES OF THE LELAND STANFORD JUNIOR …, priority 2014, dated 2019)
Like-named read-outs stand apart in the source and are kept apart here.

Legend:
[1] = tested on: native GABA-A receptors; assay: Electrophysiology in hippocampal brain slices (paired pulse inhibition, CA1); assay type: cell-based; details: rat hippocampal slice
Protocol: Brain slices were prepared from male Sprague-Dawley rats that had been deeply anesthetized with isoflurane. The brain was quickly removed and placed in ice-cold artificial cerebrospinal fluid (ACSF) that was saturated with 95% O2 and 5% CO2 (carbogen) to achieve a pH of 7.4. The ACSF was composed of the following ions dissolved in spectrophotometry grade water (EMD Chemicals Inc., Billerica, Mass.) and stated in millimolar concentrations: Na 151.25, Cl 131.5, HCO3 26, K 2.5, Ca 2, Mg 2, SO4 2, H2PO4 1.25, and glucose 10. Coronal brain slices were prepared using a vibratome (Model 1500, Technical Products International Inc., St. Louis, Mo.) and 400-μm-thick slices were hemisected and placed on cellulose filter papers. They were stored at a gas (carbogen)-liquid (ACSF) interface in a holding chamber for at least 1 hour before use. […]
Evoked field potentials were measured using thin-walled glass pipettes (1.0 ID, 1.5 OD; Garner Glass Co., Claremont, Calif.) filled with ACSF. […]
Recorded signals were conditioned using an Axoclamp 2B preamplifier (Axon Instruments, Sunnyvale, Calif.) with a bandpass from DC to 30 kHz and gain of ×10. […] Responses were measured and plotted in real time to ensure that stable baselines (<±2.0% variation) were recorded for at least 20 minutes before the experiments began. […]

[2] = tested on: American bullfrog Rana catesbeiana tadpoles; assay: Loss of righting reflex (LORR) in tadpoles; assay type: in vivo; details: Aquarana catesbeiana, water bath exposure
Protocol: Anesthesia is defined as the combination of a lack of movement to a given stimulus, lack of awareness, amnesia and analgesia. The surrogate of such is manifest in the tadpole as the loss of righting reflex (LORR). Early prelimb-bud stage American bullfrog Rana catesbeiana tadpoles (5 per 50 ml beaker) were placed in room temperature oxygenated water buffered with 2.5 mM Tris HCl buffer (pH=7.4) and containing a concentration of test compound ranging from 0.11 uM-1 mM. Tadpoles were manually tipped every 5 min with a glass rod or stream of water until their righting reflex response stabilized or 120 minutes elapses. […] At the end of each study, tadpoles were transferred to fresh water to assess whether the anesthetic action was reversible.

[3] = tested on: American bullfrog Rana catesbeiana tadpoles; assay: Loss of righting reflex (LORR) in tadpoles; assay type: in vivo; details: Aquarana catesbeiana; text refers to Table 2; read-out: EC50 for GABAaR potentiation in tadpoles
[4] = tested on: GABAaR; details: known literature value; read-out: EC50 for GABAaR potentiation; cited from earlier work

Compound | EC50 [2] [µM] | also measured
CCOC(=O)c1cc(-c2ccc(Cl)cc2)n(-c2ccccc2)c1C [Compound B] | 0.53 | concentration at which paired pulse inhibition was noted [1]: 100 µM
Cc1cc(C(=O)OCc2ccc(Cl)cc2Cl)c(C)n1-c1ccccc1 [D] | ~20 | 
COC(=O)c1cc(-c2ccc(C)c(C)c2)n(-c2ccc(Br)cc2)c1C [F] | ~20 | 
CCOC(=O)c1cc(-c2ccc(OC)cc2)n(-c2ccc(Cl)cc2)c1C [Compound A] | 1.5 | EC50 [3]: ~1.5 µM
COC(=O)c1cc(-c2ccc(Br)cc2)n(-c2ccc(Br)cc2)c1C [K] | ~40 | 
CCOC(=O)c1cc(C)n(-c2cccc(Cl)c2Cl)c1-c1ccccc1 [M] | ~20 | 
Cc1cc(C(=O)OCc2ccc(Cl)cc2)c(C)n1-c1ccc(F)cc1 [E] | ~40 | 
COC(=O)c1cc(-c2ccc(C)c(C)c2)n(-c2ccc(Cl)c(Cl)c2)c1C [H] | > 40 | 
COC(=O)c1cc(-c2ccc(C)c(C)c2)n(-c2ccc(F)cc2Br)c1C [G] | ~3 | 
Cc1cc(C(=O)OCc2c(Cl)cccc2Cl)c(C)n1-c1ccccc1 [C] | ~5 | 
Oc1ccccc1 [phenol] |  | EC50 [4]: 920 µM
COC(=O)c1cc(-c2ccc(Br)cc2)n(-c2cccc(Cl)c2C)c1C [J] | > 40 | 
CCOC(=O)c1cn(-c2ccc(Cl)cc2Cl)c(-c2ccc(Br)cc2)n1 [Compound 1n] |  | EC50 [4]: 0.19 µM
